Measured values published in ChEMBL document CHEMBL1201862, “PubChem BioAssay data set” (2004).
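Protocol summary: plate cells (96-well), add compound at 5 concentrations, incubate 48 h, interpolate endpoints linearly. At the GI50, growth is halved.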 The source made the active and inactive calls. Cut-off read from the data, not from the text of the source: active = GI50 up to about 1.1 µM and inactive = higher.

Columns and labels:
Assay in all cases: NCI tumour cell line growth inhibition, 48 h
[1] = tested on: HOP-92
[2] = tested on: OVCAR-5
[3] = tested on: UACC-257
[4] = tested on: IGROV-1
[5] = tested on: XF498
[6] = tested on: SNB-78
[7] = tested on: SK-MEL-5
[8] = tested on: LXFL 529
[9] = tested on: M19-MEL
[10] = tested on: NCI-H226
[11] = tested on: OVCAR-3
[12] = tested on: OVCAR-4
[13] = tested on: HL-60
[14] = tested on: HCT-116
[15] = tested on: SF-539
[16] = tested on: A549
[17] = tested on: SF-268
[18] = tested on: COLO 205
[19] = tested on: ACHN
[20] = tested on: OVCAR-8
[21] = tested on: U-251
[22] = tested on: A498
[23] = tested on: NCI-H23
[24] = tested on: SNB-19
[25] = tested on: NCI-H460
[26] = tested on: RXF 393
[27] = tested on: EKVX
[28] = tested on: HT-29
[29] = tested on: SR
[30] = tested on: DMS-273
[31] = tested on: HOP-62
[32] = tested on: MOLT-4
[33] = tested on: SW-620
[34] = tested on: DMS-114
[35] = tested on: HCT-15
[36] = tested on: DLD-1
[37] = tested on: SF-295
[38] = tested on: SNB-75
[39] = tested on: SN12C
[40] = tested on: SK-MEL-2
[41] = tested on: M14
[42] = tested on: KM12
[43] = tested on: HCC 2998
[44] = tested on: SK-MEL-28
[45] = tested on: K562
[46] = tested on: CAKI-1
[47] = tested on: CCRF-CEM
[48] = tested on: KM-20L2
[49] = tested on: HOP-18
[50] = tested on: Malme-3M
[51] = tested on: TK-10
[52] = tested on: UACC-62
[53] = tested on: NCI-H522
[54] = tested on: LOX IMVI
[55] = tested on: 786-0
[56] = tested on: UO-31
[57] = tested on: RPMI-8226
[58] = tested on: NCI/ADR-RES
[59] = tested on: MCF7
[60] = tested on: SK-OV-3

COC(=O)C(=O)C(C(C)=O)C(=O)NCc1ccccc1 (stereo unspecified)
GI50 [1]: > 100 µM (inactive)
GI50 [2]: > 100 µM (inactive)
GI50 [3]: > 100 µM (inactive)
GI50 [4]: > 100 µM (inactive)
GI50 [5]: > 100 µM (inactive)
GI50 [6]: > 100 µM (inactive)
GI50 [7]: > 100 µM (inactive)
GI50 [8]: > 100 µM (inactive)
GI50 [9]: > 100 µM (inactive)
GI50 [10]: > 100 µM (inactive)
GI50 [11]: > 100 µM (inactive)
GI50 [12]: > 100 µM (inactive)
GI50 [13]: > 100 µM (inactive)
GI50 [14]: > 100 µM (inactive)
GI50 [15]: > 100 µM (inactive)
GI50 [16]: > 100 µM (inactive)
GI50 [17]: > 100 µM (inactive)
GI50 [18]: > 100 µM (inactive)
GI50 [19]: > 100 µM (inactive)
GI50 [20]: > 100 µM (inactive)
GI50 [21]: 82.2 µM (inactive)
GI50 [22]: > 100 µM (inactive)
GI50 [23]: > 100 µM (inactive)
GI50 [24]: > 100 µM (inactive)
GI50 [25]: > 100 µM (inactive)
GI50 [26]: > 100 µM (inactive)
GI50 [27]: > 100 µM (inactive)
GI50 [28]: > 100 µM (inactive)
GI50 [29]: > 100 µM (inactive)
GI50 [30]: > 100 µM (inactive)
GI50 [31]: > 100 µM (inactive)
GI50 [32]: > 100 µM (inactive)
GI50 [33]: 5.06 µM (inactive)
GI50 [34]: > 100 µM (inactive)
GI50 [35]: > 100 µM
GI50 [36]: > 100 µM (inactive)
GI50 [37]: > 100 µM (inactive)
GI50 [38]: > 100 µM (inactive)
GI50 [39]: > 100 µM (inactive)
GI50 [40]: > 100 µM (inactive)
GI50 [41]: > 100 µM (inactive)
GI50 [42]: > 100 µM (inactive)
GI50 [43]: > 100 µM (inactive)
GI50 [44]: > 100 µM (inactive)
GI50 [45]: > 100 µM (inactive)
GI50 [46]: > 100 µM (inactive)
GI50 [47]: 83.2 µM (inactive)
GI50 [48]: > 100 µM (inactive)
GI50 [49]: > 100 µM (inactive)
GI50 [50]: > 100 µM (inactive)
GI50 [51]: > 100 µM (inactive)
GI50 [52]: > 100 µM (inactive)
GI50 [53]: > 100 µM (inactive)
GI50 [54]: 50.1 µM (inactive)
GI50 [55]: > 100 µM (inactive)
GI50 [56]: > 100 µM (inactive)
GI50 [57]: > 100 µM (inactive)

COC(=O)c1nc(-c2ccc3c(n2)C(=O)C(=N)C(OC)=C3O)c(N)c(-c2ccc(OC)c(OC)c2O)c1C
GI50 [1]: 2.16 µM (inactive)
GI50 [2]: 2.14 µM (inactive)
GI50 [3]: 0.419 µM (active)
GI50 [4]: 1.7 µM (inactive)
GI50 [5]: 1.18 µM (inactive)
GI50 [6]: 2.35 µM (inactive)
GI50 [7]: 0.413 µM (active)
GI50 [9]: 0.254 µM (active)
GI50 [10]: 0.324 µM (active)
GI50 [11]: 0.445 µM (active)
GI50 [12]: 1.66 µM (inactive)
GI50 [58]: 1.3 µM (inactive)
GI50 [59]: 0.153 µM (active)
GI50 [13]: 0.357 µM (active)
GI50 [14]: 0.738 µM (active)
GI50 [15]: 0.363 µM (active)
GI50 [16]: 0.189 µM (active)
GI50 [17]: 0.769 µM (active)
GI50 [18]: 1.84 µM (inactive)
GI50 [60]: 1.18 µM (inactive)
GI50 [20]: 1.08 µM (active)
GI50 [21]: 0.377 µM (active)
GI50 [22]: 1.61 µM (inactive)
GI50 [23]: 0.217 µM (active)
GI50 [24]: 0.628 µM (active)
GI50 [25]: < 0.01 µM (active)
GI50 [26]: 1.58 µM (inactive)
GI50 [27]: 2.57 µM (inactive)
GI50 [28]: 1.73 µM (inactive)
GI50 [30]: 0.303 µM (active)
GI50 [31]: 0.194 µM (active)
GI50 [32]: 2.04 µM (inactive)
GI50 [33]: 1.33 µM (inactive)
GI50 [34]: 0.415 µM (active)
GI50 [35]: 1.13 µM
GI50 [36]: 1.17 µM (inactive)
GI50 [37]: 0.449 µM (active)
GI50 [38]: 0.984 µM (active)
GI50 [39]: 1.16 µM (inactive)
GI50 [40]: 1.47 µM (inactive)
GI50 [42]: 1.68 µM (inactive)
GI50 [43]: 0.128 µM (active)
GI50 [44]: 1.33 µM (inactive)
GI50 [45]: 1.93 µM (inactive)
GI50 [46]: 0.628 µM (active)
GI50 [47]: 2.56 µM (inactive)
GI50 [48]: 2.24 µM (inactive)
GI50 [49]: 2.03 µM (inactive)
GI50 [50]: 0.524 µM (active)
GI50 [52]: 0.29 µM (active)
GI50 [53]: 1.06 µM (active)
GI50 [54]: 0.29 µM (active)
GI50 [56]: 0.729 µM (active)
GI50 [57]: 1.21 µM (inactive)
